Source: patent publication US20240318160A1 (Wisconsin Alumni Research Foundation, priority 2023, published 2024)
Where “and” joins values, the source holds several entries; their conditions need not be identical. Equal values may be shown once.

Tests used:
Test in all cases: TAL and PAL enzyme kinetics
Assay type in all cases: biochemical
[1] = tested on: Joinvillea ascendens JaPTAL (SEQ ID NO: 27) variant H125F/I97S (JaPTAL^H125F_I97S); details: PAL assay (L-Phe), pH 8.5, 30° C.
Method: (§1) A mixture containing 100 mM Tris-HCl (pH 8.5), 1% glycerol, and purified enzyme in a total volume of 50 μl was preincubated for 3 min at 30° C. […] The reactions were terminated by addition of 6N acetic acid (10 μl).
(§2) The kinetic parameters of the recombinant enzymes were determined using HPLC. Reaction mixtures containing 100 mM Tris-HCl (pH 8.5), 1% glycerol, and purified enzyme (0.15 μg for PAL assay and 1 μg for TAL assay) in a 50 μl total volume were preincubated for 3 min at 30° C. […] After 10 min and 20 min incubations for PAL and TAL assay, respectively, at 30° C., the reaction was terminated by addition of 6N acetic acid (10 μl). […] The products were quantified using calibration curves generated using authentic standards. Non-linear hyperbolic regression analyses were conducted using the Excel Solver tool to calculate Km and Vmax values.

[2] = tested on: Joinvillea ascendens JaPAL, wild type, SEQ ID NO: 28; details: PAL assay (L-Phe), pH 8.5, 30° C.
Method: as §1, §2

[3] = tested on: Joinvillea ascendens JaPAL variant F140H (JaPAL^F140H), SEQ ID NO: 259; details: PAL assay (L-Phe), pH 8.5, 30° C.
Method: as §1, §2

[4] = tested on: Streptochaeta angustifolia SaPTAL-b, wild type; details: PAL assay (L-Phe), pH 8.5, 30° C.
Method: as §1, §2

[5] = tested on: Ecdeiocolea monostachya EmoPAL variant F134H (EmoPAL^F134H); details: PAL assay (L-Phe), pH 8.5, 30° C.
Method: as §1, §2

[6] = tested on: Ecdeiocolea monostachya EmoPTAL, wild type; details: PAL assay (L-Phe), pH 8.5, 30° C.
Method: as §1, §2

[7] = tested on: Joinvillea ascendens JaPTAL (SEQ ID NO: 27) variant H125F (JaPTAL^H125F); details: PAL assay (L-Phe), pH 8.5, 30° C.
Method: as §1, §2

[8] = tested on: Joinvillea ascendens JaPTAL, wild type, SEQ ID NO: 27; details: PAL assay (L-Phe), pH 8.5, 30° C.
Method: as §1, §2

[9] = tested on: Sorghum bicolor SbPAL variant F135H (SbPAL^F135H); details: PAL assay (L-Phe), pH 8.5, 30° C.
Method: as §1, §2

[10] = tested on: Streptochaeta angustifolia SaPTAL-a variant H118F (SaPTAL-a^H118F); details: PAL assay (L-Phe), pH 8.5, 30° C.
Method: as §1, §2

[11] = tested on: Streptochaeta angustifolia SaPTAL-b variant H126F (SaPTAL-b^H126F); details: PAL assay (L-Phe), pH 8.5, 30° C.
Method: as §1, §2

[12] = tested on: Joinvillea ascendens JaPAL (SEQ ID NO: 28) variant JaPAL^F140H_MUT8 (F140H plus PTAL-type residues at 102, 112, 121, 138, 267, 444, 448, 500)
Method: (§3) To investigate the potential role of these residues in TAL activity, we generated two JaPAL mutant enzymes, one with PTAL-type substitutions in the 8 circle residues and the other with PTAL-type substitutions in both the circle and triangle residues (Table 4) in addition to the F140H mutation (JaPAL^F140H_MUT8 and JaPAL^F140H_MUT16, respectively).
as §1, §2

[13] = tested on: Joinvillea ascendens JaPAL (SEQ ID NO: 28) variant JaPAL^F140H_MUT16 (F140H plus PTAL-type residues at 70, 102, 110, 112, 121, 129, 135, 138, 267, 271, 279 …); details: PAL assay (L-Phe), pH 8.5, 30° C.
Method: as §3, §1, §2

[14] = tested on: Joinvillea ascendens JaPAL variant S112I (JaPAL^S112I), SEQ ID NO: 258; details: PAL assay (L-Phe), pH 8.5, 30° C.
Method: (§4) To test this hypothesis further, the reciprocal S112I mutation was introduced into the JaPAL^F140H single mutant to generate the JaPAL^F140H_S112I double mutant. For comparison, a single mutant in which the residue corresponding to Ser112 was converted to Ile (i.e., JaPAL^S112I) was generated as well.
as §1, §2

[15] = tested on: Joinvillea ascendens JaPAL variant F140H/S112I (JaPAL^F140H_S112I), SEQ ID NO: 145; details: PAL assay (L-Phe), pH 8.5, 30° C.
Method: as §4, §1, §2

[16] = PAL assay (L-Phe), pH 8.5, 30° C.

Q: For `N[C@@H](Cc1ccccc1)C(=O)O` [L-Phe, phenylalanine], which kcat/Km [1] is on record?
A: The kcat/Km was 1660 ± 120 M⁻¹ s⁻¹.

Q: And the Km [2]?
A: The Km was 24 µM and 24.4 µM.

Q: And the kcat [2]?
A: The kcat was 1.9 s⁻¹ and 1.92 ± 0.01 s⁻¹.

Q: And the kcat/Km [2]?
A: Its kcat/Km is 78600 ± 0 M⁻¹ s⁻¹.

Q: What about the Km [3] of the same compound?
A: The Km was 697 ± 169 µM.

Q: And the kcat [3]?
A: Its kcat is 0.60 ± 0.04 s⁻¹.

Q: And the kcat/Km [3]?
A: The kcat/Km was 890 ± 180 M⁻¹ s⁻¹.

Q: And the Km [4]?
A: Its Km is 227.4 ± 1.5 µM.

Q: What about the kcat [4] of the same compound?
A: Its kcat is 0.56 ± 0.02 s⁻¹.

Q: And the kcat/Km [4]?
A: The kcat/Km was 2460 ± 100 M⁻¹ s⁻¹.

Q: And the Km [5]?
A: The Km was 1310 ± 25.6 µM.

Q: What about the kcat [5] of the same compound?
A: The kcat was 0.42 ± 0.01 s⁻¹.

Q: What about the kcat/Km [5] of the same compound?
A: Its kcat/Km is 320 ± 10 M⁻¹ s⁻¹.

Q: And the Km [6]?
A: Its Km is 64.1 ± 3.1 µM.

Q: And the kcat [6]?
A: The kcat was 0.48 ± 0.00 s⁻¹.

Q: What about the kcat/Km [6] of the same compound?
A: The kcat/Km was 7540 ± 390 M⁻¹ s⁻¹.

Q: What about the Km [7] of the same compound?
A: Its Km is 6.8 ± 0.7 µM.

Q: What about the kcat [7] of the same compound?
A: The kcat was 0.08 ± 0.00 s⁻¹.

Q: What about the kcat/Km [7] of the same compound?
A: Its kcat/Km is 12280 ± 710 M⁻¹ s⁻¹.

Q: And the Km [8]?
A: Its Km is 66 µM and 65.6 µM.

Q: What about the kcat [8] of the same compound?
A: The kcat was 0.5 s⁻¹ and 0.45 ± 0.02 s⁻¹.

Q: And the kcat/Km [8]?
A: The kcat/Km was 6800 ± 180 M⁻¹ s⁻¹.

Q: What about the Km [9] of the same compound?
A: The Km was 1050 ± 58.5 µM.

Q: And the kcat [9]?
A: Its kcat is 0.88 ± 0.05 s⁻¹.

Q: And the kcat/Km [9]?
A: The kcat/Km was 840 ± 20 M⁻¹ s⁻¹.

Q: And the Km [10]?
A: The Km was 6 ± 0.8 µM.

Q: What about the kcat [10] of the same compound?
A: Its kcat is 0.20 ± 0.00 s⁻¹.

Q: And the kcat/Km [10]?
A: Its kcat/Km is 33600 ± 5100 M⁻¹ s⁻¹.

Q: What about the Km [11] of the same compound?
A: The Km was 6.3 ± 0.5 µM.

Q: What about the kcat/Km [11] of the same compound?
A: Its kcat/Km is 37050 ± 2120 M⁻¹ s⁻¹.

Q: And the “Km for Phe relative to wild-type JaPTAL” value ([12]; PAL activity, higher than JaPTAL)?
A: Its value is 2 fold.

Q: And the Km [12, 16]?
A: Its Km is 141 ± 6.3 µM.

Q: And the kcat [12, 16]?
A: Its kcat is 0.60 ± 0.01 s⁻¹.

Q: And the kcat/Km [12, 16]?
A: The kcat/Km was 4250 ± 220 M⁻¹ s⁻¹.

Q: And the Km [13]?
A: Its Km is 455 ± 4.6 µM.

Q: And the kcat [13]?
A: The kcat was 0.46 ± 0.01 s⁻¹.

Q: What about the kcat/Km [13] of the same compound?
A: The kcat/Km was 1010 ± 0 M⁻¹ s⁻¹.

Q: And the Km [14]?
A: The Km was 2.6 ± 0.5 µM.

Q: What about the kcat [14] of the same compound?
A: Its kcat is 0.21 ± 0.04 s⁻¹.

Q: And the kcat/Km [14]?
A: Its kcat/Km is 79800 ± 0 M⁻¹ s⁻¹.

Q: And the Km [15]?
A: The Km was 67.3 ± 2.5 µM.

Q: And the kcat [15]?
A: The kcat was 0.77 ± 0.01 s⁻¹.

Q: And the kcat/Km [15]?
A: The kcat/Km was 11460 ± 210 M⁻¹ s⁻¹.
